Measurements from US9708259B2 (Hoffmann-La Roche Inc., priority 2013, dated 2017).
Residue numbers refer to the chain shown, from its start. Read-outs that look alike come from different tables or passages of the source.

Tests used:
human M1 = molecular target: T1, human M1 (Homo sapiens, UniProt P11229); experiment: M1 PAM assay (FLIPR intracellular calcium), human M1; format: cell-based
T1 construct: expressed in transfected cells; host or cells: CHO cells
T1 sequence (P11229 1-460): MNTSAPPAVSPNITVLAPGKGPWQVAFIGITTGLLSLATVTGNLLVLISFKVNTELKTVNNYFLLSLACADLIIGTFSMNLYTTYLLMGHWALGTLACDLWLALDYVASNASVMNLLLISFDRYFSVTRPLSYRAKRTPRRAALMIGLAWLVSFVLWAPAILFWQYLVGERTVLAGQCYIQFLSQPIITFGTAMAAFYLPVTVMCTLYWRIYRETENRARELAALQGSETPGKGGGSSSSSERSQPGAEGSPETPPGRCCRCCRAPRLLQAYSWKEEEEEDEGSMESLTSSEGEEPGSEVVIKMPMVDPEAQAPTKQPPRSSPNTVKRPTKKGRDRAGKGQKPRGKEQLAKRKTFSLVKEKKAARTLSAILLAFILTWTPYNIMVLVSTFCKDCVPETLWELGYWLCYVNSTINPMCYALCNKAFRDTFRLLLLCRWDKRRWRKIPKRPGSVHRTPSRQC
Experimental: The assay study the effect of several concentrations of test compounds on basal or acetylcholine-stimulated Ca^2+ levels using FLIPR.
CHO human M1 are plated the day before the experiments at 2×10^5 cells/ml in PDL BioCoat 96 well black/clear plate (Becton 35 4640). The cells are grown at 37° C. and 5% CO2 in the following medium: F12 Nut Mix (Gibco 21765), 10% FCS heat inactivated (GIBCO 16000-044), 1% Pen Strep (Gibco,15140) and 200 μg/ml Geneticin (Gibco 11811). On the day of the experiment, the medium was removed and replaced by […] of dye loading buffer containing Hanks Balanced Salt solution (HBSS, 14065-049, Gibco) with 20 mM HEPES (Gibco 15630-056), 2 mM Probenicid (Sigma P8761), […] ester (Molecular Probes F-14202), 10% Pluronic acid Molecular Probes P-3000) pH=7.4 and incubated at 37° C. After 60 minutes extracellular dye was removed and the cells were washed five times with FLIPR buffer containing HBSS (Gibco 14065-049) with 20 mM HEPES (Gibco, 15630-056), 2 mM Probenicid (Sigma P8761) pre-warmed at 37° C. using and Ebml cell washer leaving […] of FLIPR buffer in each well. The cell plate and the diluted compounds (1% DMSO final concentration) are placed on the platform of the FLIPR and the door closed. A signal test to check background fluorescence and basal fluorescence signal is performed. Laser intensity is adjusted if necessary. Two minutes preincubation with the diluted test compounds is provide to determine any agonist activity on the M1 receptor by comparison to 30 nM Acetylcholine control. In order to determine any modulator activity the diluted compounds were added to cells and after two minutes preincubation, the EC20 of acetylcholine is added followed by another two minutes preincubation before the measurement of intracellular Ca^2+ with a FLIPR (Molecular Devices).

ratM1 = molecular target: T2, ratM1 (Rattus norvegicus, UniProt P08482); experiment: M1 PAM assay (FLIPR intracellular calcium), rat M1; format: cell-based
T2 construct: expressed in transfected cells; host or cells: CHO cells (stated generally for the assay, not specifically for rat M1)
T2 sequence (P08482 1-460): T1 sequence (P11229 1-460) with A5V, T254S, P309S, R320K, A337G, I413V

[1] = CHO human M1 cells, FLIPR Ca2+, with EC20 of acetylcholine, first value of the cell, read-out: hM1 EC50
[2] = rat M1, FLIPR Ca2+, second value of the cell, read-out: ratM1 EC50

| SMILES | EC50 (human M1) | EC50 (ratM1) | EC50 (human M1; [1]) | EC50 (ratM1; [2]) |
| --- | --- | --- | --- | --- |
| O=C(N[C@H]1CCCC[C@@H]1O)c1cn(Cc2ccc(Cl)cc2)c2cccc(F)c12 [Example 38, 1-(4-chlorobenzyl)-4-fluoro-N-((1S,2S)-2-hydroxycyclohexyl)-1H-indole-3-carboxamide] | 131 nM | 382 nM | – | – |
| Cn1ncc2cc(Cn3cc(C(=O)NC4CCOCC4)c4c(F)cccc43)ccc21 [Example 66, 4-fluoro-1-((1-methyl-1H-indazol-5-yl)methyl)-N-(tetrahydro-2H-pyran-4-yl)-1H-indole-3-carboxamide] | 216 nM | 412 nM | – | – |
| Cn1cc(-c2ccc(Cn3cc(C(=O)NC4CCOCC4)c4c(F)ccc(F)c43)cc2)cn1 [Example 95, 4,7-difluoro-1-(4-(1-methyl-1H-pyrazol-4-yl)benzyl)-N-(tetrahydro-2H-pyran-4-yl)-1H-indole-3-carboxamide] | – | – | 27 nM | 50 nM |
| O=C(NC1CC1)c1ccc(Cn2cc(C(=O)N[C@H]3CCCC[C@@H]3O)c3c(F)cccc32)cc1 [Example 146, 1-(4-(cyclopropylcarbamoyl)benzyl)-4-fluoro-N-((1S,2S)-2-hydroxycyclohexyl)-1H-indole-3-carboxamide] | – | – | 2 nM | 5 nM |
| Cc1ccn(-c2ccc(Cn3cc(C(=O)N[C@H]4CCCC[C@@H]4O)c4c(F)c(F)ccc43)cc2)n1 [Example 61, 4,5-difluoro-N-((1S,2S)-2-hydroxycyclohexyl)-1-(4-(3-methyl-1H-pyrazol-1-yl)benzyl)-1H-indole-3-carboxamide] | – | – | 343 nM | 515 nM |
| Cn1cc(-c2ccc(Cn3cc(C(=O)N[C@H]4CCOC[C@@H]4O)c4c(F)c(F)c(F)c(F)c43)c(F)c2)cn1 (single isomer, unassigned) [Example 64, 4,5,6,7-Tetrafluoro-1-(2-fluoro-4-(1-methyl-1H-pyrazol-4-yl)benzyl)-N-((3R,4S) or (3S,4R))-3-hydroxytetrahydro-2H-pyran-4-yl)-1H-indole-3-carboxamide] | – | – | 54.7 nM | 79.9 nM |
| Cn1cc(-c2ccc(Cn3cc(C(=O)NC4CCOCC4)c4c(F)cccc43)cc2)cn1 [Example 65, Fluoro-1-(4-(1-methyl-1H-pyrazol-4-yl)benzyl)-N-(tetrahydro-2H-pyran-4-yl)-1H-indole-3-carboxamide] | – | – | 32.4 nM | 59.9 nM |
| Cc1nc(-c2ccc(Cn3cc(C(=O)N[C@H]4CCOC[C@@H]4O)c4c(F)cccc43)cc2)no1 [Example 83, 4-fluoro-N-((3R,4S)-3-hydroxytetrahydro-2H-pyran-4-yl)-1-(4-(5-methyl-1,2,4-oxadiazol-3-yl)benzyl)-1H-indole-3-carboxamide] | – | – | 184 nM | 160 nM |
| Cn1cc(-c2ccc(Cn3cc(C(=O)NC4CCC4)c4c(F)cccc43)cc2)cn1 [Example 11, N-cyclobutyl-4-fluoro-1-(4-(1-methyl-1H-pyrazol-4-yl)benzyl)-1H-indole-3-carboxamide] | – | – | 413 nM | 618 nM |
| Cn1cc(-c2ccc(Cn3cc(C(=O)N[C@@H]4CCCC(F)(F)[C@H]4O)c4c(F)cccc43)c(F)c2)cn1 [Example 102, N-((1R,2S)-3,3-difluoro-2-hydroxycyclohexyl)-4-fluoro-1-(2-fluoro-4-(1-methyl-1H-pyrazol-4-yl)benzyl)-1H-indole-3-carboxamide] | – | – | 29 nM | 88 nM |
| Cn1cc(-c2ccc(Cn3nc(C(=O)N[C@H]4CCOC[C@@H]4O)c4c(F)ccc(F)c43)cn2)cn1 [Example 74, 4,7-difluoro-N-((3R,4S)-3-hydroxytetrahydro-2H-pyran-4-yl)-1-((6-(1-methyl-1H-pyrazol-4-yl)yridine-3-yl)methyl)-1H-indazole-3-carboxamide] | – | – | 54.8 nM | 48.9 nM |
| Cn1cc(-c2ccc(Cn3nc(C(=O)N[C@H]4CCCC[C@@H]4O)c4c(F)ccc(F)c43)cn2)cn1 [Example 75, 4,7-difluoro-N-((1S,2S)-2-hydroxycyclohexanol)-1-((6-(1-methyl-1H-pyrazol-4-yl)yridine-3-yl)methyl)-1H-indazole-3-carboxamide] | – | – | 40.1 nM | 46 nM |
| Cn1cc(-c2ccc(Cn3cc(C(=O)N[C@H]4CCCC[C@@H]4O)c4c(F)cc(F)cc43)c(F)c2)cn1 [Example 5, 4,6-difluoro-1-(2-fluoro-4-(1-methyl-1H-pyrazol-4-yl)benzyl)-N-((1S,2S)-2-hydroxycyclohexyl)-1H-indole-3-carboxamide] | – | – | 83.8 nM | 231 nM |
| Cn1cc(-c2ccc(Cn3cc(C(=O)N[C@H]4CCOC[C@@H]4O)c4c(F)c(F)c(F)c(F)c43)cc2)cn1 (single isomer, unassigned) [Example 63, 4,5,6,7-Tetrafluoro-N-((3R,4S) or (3S,4R)-3-hydroxytetrahydro-2H-pyran-4-yl)-1-(4-(1-methyl-1H-pyrazol-4-yl)benzyl)-1H-indole-3-carboxamide] | – | – | 19.6 nM | 54.2 nM |
| CNC(=O)c1ccc(Cn2cc(C(=O)N[C@H]3CCCC[C@@H]3O)c3c(F)cccc32)cc1F [Example 88, 4-fluoro-1-(3-fluoro-4-(methylcarbamoyl)benzyl)-N-((1S,2S)-2-hydroxycyclohexyl)-1H-indole-3-carboxamide] | – | – | 14.3 nM | 15.8 nM |
| CNC(=O)c1ccc(Cn2cc(CC(=O)N[C@H]3CCOC[C@@H]3O)c3c(F)cccc32)cc1 [Example 98, 4-((4-fluoro-3-(2-((3R,4S)-3-hydroxytetrahydro-2H-pyran-4-ylamino)-2-oxoethyl)-1H-indol-1-yl)methyl)-N-methylbenzamide] | – | – | 32 nM | 134 nM |
| Cn1cc(-c2ccc(Cn3cc(C(=O)N[C@H]4CCCC[C@@H]4O)c4c(F)cccc43)c(F)c2)cn1 [Example 1] | – | – | 5.64 nM | 62.6 nM |
| O=C(N[C@H]1CCCC[C@@H]1O)c1cn(Cc2cnc(-c3ccccc3)nc2)c2cccc(F)c12 [Example 139, 4-fluoro-N-((1S,2S)-2-hydroxycyclohexyl)-1-((2-phenylpyrimidin-5-yl)methyl)-1H-indole-3-carboxamide] | – | – | 423 nM | 2630 nM |
| O=C(N[C@H]1CCCC[C@@H]1O)c1cn(Cc2ccccc2)c2cccc(F)c12 [Example 47, 1-benzyl-4-fluoro-N-((1S,2S)-2-hydroxycyclohexyl)-1H-indole-3-carboxamide] | 118 nM | 393 nM | – | – |
| CNC(=O)c1ccc(Cn2cc(C(=O)NC3CCCCCC3)c3c(F)cccc32)cc1 [Example 115, N-cycloheptyl-4-fluoro-1-[[4-(methylcarbamoyl)phenyl]methy]indole-3-carboxamide] | – | – | 50 nM | 28 nM |
| CNC(=O)c1ccc(Cn2cc(C(=O)NC3CCC3)c3c(F)cccc32)cc1 [Example 112, N-cyclobutyl-4-fluoro-1-[[4-(methylcarbamoyl)phenyl]methyl]indole-3-carboxamide] | – | – | 72 nM | 168 nM |
| O=C(N[C@H]1CCCC[C@@H]1O)c1cn(Cc2ccc(F)c(F)c2)c2cccc(F)c12 [Example 41, 1-(3,4-difluorobenzyl)-4-fluoro-N-((1S,2S)-2-hydroxycyclohexyl)-1H-indole-3-carboxamide] | 219 nM | 456 nM | – | – |
